Laboratory results published in ChEMBL document CHEMBL1667725, “Tuberatolides, potent FXR antagonists from the Korean marine tunicate Botryllus tuberatus” (J Nat Prod, 2011).
Active and inactive are the calls of the source.

Tests used:
[1] = target: T1, Androgen receptor (Homo sapiens) (UniProt P10275); assay: Effect on human Gal4-fused AR at 10 uM by luciferase reporter gene assay
T1 sequence (whole entry): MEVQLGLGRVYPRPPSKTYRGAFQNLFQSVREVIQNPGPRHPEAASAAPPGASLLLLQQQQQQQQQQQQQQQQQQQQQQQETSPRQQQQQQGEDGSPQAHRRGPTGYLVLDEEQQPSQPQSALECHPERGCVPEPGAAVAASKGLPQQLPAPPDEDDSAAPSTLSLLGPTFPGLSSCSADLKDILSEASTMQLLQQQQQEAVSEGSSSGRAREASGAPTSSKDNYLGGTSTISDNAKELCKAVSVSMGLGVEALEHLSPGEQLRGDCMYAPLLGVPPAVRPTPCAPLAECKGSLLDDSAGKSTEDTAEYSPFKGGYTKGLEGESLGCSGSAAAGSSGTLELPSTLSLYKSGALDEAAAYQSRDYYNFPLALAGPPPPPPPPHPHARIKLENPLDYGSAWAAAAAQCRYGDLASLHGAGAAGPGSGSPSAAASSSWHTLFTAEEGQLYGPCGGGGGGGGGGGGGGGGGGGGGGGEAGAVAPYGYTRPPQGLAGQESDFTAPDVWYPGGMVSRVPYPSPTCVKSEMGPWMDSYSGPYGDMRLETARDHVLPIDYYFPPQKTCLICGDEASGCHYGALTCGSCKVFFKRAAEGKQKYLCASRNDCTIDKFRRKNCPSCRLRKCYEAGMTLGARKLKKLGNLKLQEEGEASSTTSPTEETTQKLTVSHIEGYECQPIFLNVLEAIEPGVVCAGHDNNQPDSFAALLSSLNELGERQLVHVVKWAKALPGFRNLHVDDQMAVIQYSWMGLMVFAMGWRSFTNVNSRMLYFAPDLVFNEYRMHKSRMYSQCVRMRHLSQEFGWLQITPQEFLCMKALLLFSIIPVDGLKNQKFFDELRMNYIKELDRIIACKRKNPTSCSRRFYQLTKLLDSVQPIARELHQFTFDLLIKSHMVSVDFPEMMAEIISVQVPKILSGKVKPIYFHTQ

[2] = target: T2, Mineralocorticoid receptor (Homo sapiens) (UniProt P08235); assay: Effect on human Gal4-fused MCR at 10 uM by luciferase reporter gene assay
T2 sequence (whole entry): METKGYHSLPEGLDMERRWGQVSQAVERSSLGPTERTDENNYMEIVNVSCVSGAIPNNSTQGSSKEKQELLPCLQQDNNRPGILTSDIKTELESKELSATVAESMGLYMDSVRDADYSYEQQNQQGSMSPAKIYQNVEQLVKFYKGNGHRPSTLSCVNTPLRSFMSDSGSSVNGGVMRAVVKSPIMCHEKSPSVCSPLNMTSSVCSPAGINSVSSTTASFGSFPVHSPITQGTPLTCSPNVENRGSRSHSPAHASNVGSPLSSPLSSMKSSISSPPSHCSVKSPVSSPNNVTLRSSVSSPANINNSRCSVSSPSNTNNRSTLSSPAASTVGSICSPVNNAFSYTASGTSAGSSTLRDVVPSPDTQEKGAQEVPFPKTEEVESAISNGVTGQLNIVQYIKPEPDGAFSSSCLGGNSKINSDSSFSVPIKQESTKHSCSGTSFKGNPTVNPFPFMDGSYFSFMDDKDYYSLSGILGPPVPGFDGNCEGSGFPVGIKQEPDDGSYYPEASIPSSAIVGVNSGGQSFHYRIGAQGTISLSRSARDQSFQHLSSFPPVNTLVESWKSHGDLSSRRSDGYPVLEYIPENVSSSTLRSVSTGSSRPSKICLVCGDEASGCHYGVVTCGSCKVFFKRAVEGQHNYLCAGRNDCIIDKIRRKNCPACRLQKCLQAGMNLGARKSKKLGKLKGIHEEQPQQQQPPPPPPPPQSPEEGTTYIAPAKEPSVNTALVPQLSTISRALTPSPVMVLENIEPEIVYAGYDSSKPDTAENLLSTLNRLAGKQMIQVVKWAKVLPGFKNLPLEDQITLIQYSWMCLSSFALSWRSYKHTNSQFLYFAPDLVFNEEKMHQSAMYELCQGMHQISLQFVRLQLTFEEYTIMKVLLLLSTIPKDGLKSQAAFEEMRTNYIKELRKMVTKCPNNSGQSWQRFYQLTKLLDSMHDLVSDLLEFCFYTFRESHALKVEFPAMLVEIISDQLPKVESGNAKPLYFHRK

[3] = target: T3, Progesterone receptor (Homo sapiens) (UniProt P06401); assay: Effect on human Gal4-fused PR at 10 uM by luciferase reporter gene assay
T3 sequence (whole entry): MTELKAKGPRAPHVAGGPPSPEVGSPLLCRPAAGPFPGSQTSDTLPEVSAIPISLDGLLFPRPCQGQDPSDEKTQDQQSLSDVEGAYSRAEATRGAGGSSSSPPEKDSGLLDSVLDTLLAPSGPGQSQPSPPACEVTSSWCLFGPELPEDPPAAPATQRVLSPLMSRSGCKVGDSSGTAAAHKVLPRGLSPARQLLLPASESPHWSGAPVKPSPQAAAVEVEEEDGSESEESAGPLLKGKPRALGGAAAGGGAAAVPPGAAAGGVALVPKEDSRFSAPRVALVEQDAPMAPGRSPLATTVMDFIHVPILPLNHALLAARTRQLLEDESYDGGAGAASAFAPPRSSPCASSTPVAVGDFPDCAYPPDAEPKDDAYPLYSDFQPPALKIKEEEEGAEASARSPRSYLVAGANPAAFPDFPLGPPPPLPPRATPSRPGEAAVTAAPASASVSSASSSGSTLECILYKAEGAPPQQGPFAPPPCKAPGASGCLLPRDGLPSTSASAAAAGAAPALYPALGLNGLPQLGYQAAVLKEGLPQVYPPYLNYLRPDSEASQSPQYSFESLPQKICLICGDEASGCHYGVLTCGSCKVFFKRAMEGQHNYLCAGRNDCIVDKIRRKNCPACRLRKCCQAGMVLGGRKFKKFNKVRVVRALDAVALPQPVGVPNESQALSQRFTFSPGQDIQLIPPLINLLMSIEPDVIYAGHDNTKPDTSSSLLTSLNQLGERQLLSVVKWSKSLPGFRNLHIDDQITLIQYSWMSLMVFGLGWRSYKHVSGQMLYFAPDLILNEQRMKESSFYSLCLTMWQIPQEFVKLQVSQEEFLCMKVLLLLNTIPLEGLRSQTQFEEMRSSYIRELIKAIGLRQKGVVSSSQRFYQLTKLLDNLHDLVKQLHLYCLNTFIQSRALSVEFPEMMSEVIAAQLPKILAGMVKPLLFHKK

Measured: Activity

CC(=O)CC/C=C(\C)C[C@@H]1C=C(CCC=C(C)C)C(=O)O1 [TUBERATOLIDE A]
inactive: all assays above

CC(C)=CCC/C(=C/CC/C(C)=C/CC[C@@]1(C)C=Cc2cc(O)cc(C)c2O1)C(=O)O [(S)-SARGACHROMENOL]
inactive: all assays above

CC(C)=CCC/C(=C/CC/C(C)=C/CC[C@]1(C)C=Cc2cc(O)cc(C)c2O1)C(=O)O [(R)-SARGACHROMENOL]
inactive: all assays above

CC(C)=CCCC1=C[C@@H](C/C(C)=C/CC/C(C)=C/CC2=CC(=O)C=C(C)C2=O)OC1=O [YEZOQUINOLIDE]
inactive: all assays above

CC(C)=CCCC1=C[C@@H](C/C(C)=C/CC[C@@]2(C)C=Cc3cc(O)cc(C)c3O2)OC1=O [TUBERATOLIDE B]
inactive: all assays above

CC(C)=CCCC1=C[C@@H](C/C(C)=C/CC[C@]2(C)C=Cc3cc(O)cc(C)c3O2)OC1=O [2'-EPI-TUBERATOLIDE B]
inactive: all assays above
